From ChEMBL document CHEMBL4765444, “Chimera induced protein degradation: PROTACs and beyond” (Eur J Med Chem, 2020)

System: HEK293
Assay: Induction of VHL-mediated SGK3 degradation in HEK293 cells at 10 uM incubated for 48 hrs by immunoblot analysis relative to control
Type: cell-based
Conditions: Homo sapiens

Compound	Activity
Cc1ccc(F)c(S(=O)(=O)Nc2ccc(-c3nc(OC[C@H]4CN(CCOCCOCC(=O)N[C@H](C(=O)N5C[C@H](O)C[C@H]5C(=O)NCc5ccc(-c6scnc6C)cc5)C(C)(C)C)CCO4)c4cn[nH]c4n3)cc2)c1	> 50%
Cc1ccc(F)c(S(=O)(=O)Nc2ccc(-c3nc(OC[C@H]4CN(CCOCCOCCOCCOCCOCC(=O)N[C@H](C(=O)N5C[C@H](O)C[C@H]5C(=O)NCc5ccc(-c6scnc6C)cc5)C(C)(C)C)CCO4)c4cn[nH]c4n3)cc2)c1	> 50%
COc1ccc(Cl)c(S(=O)(=O)Nc2ccc(-c3nc(OC[C@H]4CN(CCCCCCOCCOCCOCCOCC(=O)N[C@H](C(=O)N5C[C@H](O)C[C@H]5C(=O)NCc5ccc(-c6scnc6C)cc5)C(C)(C)C)CCO4)c4c(C)n[nH]c4n3)cc2)c1	> 50%
Cc1ccc(F)c(S(=O)(=O)Nc2ccc(-c3nc(OC[C@H]4CN(CCCCCCOCCOCCOCCOCC(=O)N[C@H](C(=O)N5C[C@H](O)C[C@H]5C(=O)NCc5ccc(-c6scnc6C)cc5)C(C)(C)C)CCO4)c4cn[nH]c4n3)cc2)c1	> 50%
Cc1ccc(F)c(S(=O)(=O)Nc2ccc(-c3nc(OC[C@H]4CN(CCCCCCOCCOCCOCC(=O)N[C@H](C(=O)N5C[C@H](O)C[C@H]5C(=O)NCc5ccc(-c6scnc6C)cc5)C(C)(C)C)CCO4)c4cn[nH]c4n3)cc2)c1	> 50%
Cc1ccc(F)c(S(=O)(=O)Nc2ccc(-c3nc(OC[C@H]4CN(CCOCCOCCOCC(=O)N[C@H](C(=O)N5C[C@H](O)C[C@H]5C(=O)NCc5ccc(-c6scnc6C)cc5)C(C)(C)C)CCO4)c4cn[nH]c4n3)cc2)c1	> 50%
Cc1ccc(F)c(S(=O)(=O)Nc2ccc(-c3nc(OC[C@H]4CN(CCCCCCOCCCCCCOCC(=O)N[C@H](C(=O)N5C[C@H](O)C[C@H]5C(=O)NCc5ccc(-c6scnc6C)cc5)C(C)(C)C)CCO4)c4cn[nH]c4n3)cc2)c1	> 50%
Cc1ccc(F)c(S(=O)(=O)Nc2ccc(-c3nc(OC[C@H]4CN(CCOCCOCCOCCOCC(=O)N[C@H](C(=O)N5C[C@H](O)C[C@H]5C(=O)NCc5ccc(-c6scnc6C)cc5)C(C)(C)C)CCO4)c4cn[nH]c4n3)cc2)c1	> 50%
COc1ccc(Cl)c(S(=O)(=O)Nc2ccc(-c3nc(OC[C@H]4CN(CCCCCCOCCCCCCOCC(=O)N[C@H](C(=O)N5C[C@H](O)C[C@H]5C(=O)NCc5ccc(-c6scnc6C)cc5)C(C)(C)C)CCO4)c4c(C)n[nH]c4n3)cc2)c1	> 50%

Target: Protein cereblon/Tyrosine-protein kinase ABL1/Breakpoint cluster region protein (Homo sapiens) (UniProt P00519+P11274+Q96SW2)
Assay: Induction of CRBN-mediated BCR-ABL degradation in human K562 cells at 1 uM incubated for 24 hrs by Western blot analysis relative to control
Type: cell-based
Conditions: not given

Sequence of Protein cereblon/Tyrosine-protein kinase ABL1/Breakpoint cluster region protein (Homo sapiens) (P00519 whole entry, looked up): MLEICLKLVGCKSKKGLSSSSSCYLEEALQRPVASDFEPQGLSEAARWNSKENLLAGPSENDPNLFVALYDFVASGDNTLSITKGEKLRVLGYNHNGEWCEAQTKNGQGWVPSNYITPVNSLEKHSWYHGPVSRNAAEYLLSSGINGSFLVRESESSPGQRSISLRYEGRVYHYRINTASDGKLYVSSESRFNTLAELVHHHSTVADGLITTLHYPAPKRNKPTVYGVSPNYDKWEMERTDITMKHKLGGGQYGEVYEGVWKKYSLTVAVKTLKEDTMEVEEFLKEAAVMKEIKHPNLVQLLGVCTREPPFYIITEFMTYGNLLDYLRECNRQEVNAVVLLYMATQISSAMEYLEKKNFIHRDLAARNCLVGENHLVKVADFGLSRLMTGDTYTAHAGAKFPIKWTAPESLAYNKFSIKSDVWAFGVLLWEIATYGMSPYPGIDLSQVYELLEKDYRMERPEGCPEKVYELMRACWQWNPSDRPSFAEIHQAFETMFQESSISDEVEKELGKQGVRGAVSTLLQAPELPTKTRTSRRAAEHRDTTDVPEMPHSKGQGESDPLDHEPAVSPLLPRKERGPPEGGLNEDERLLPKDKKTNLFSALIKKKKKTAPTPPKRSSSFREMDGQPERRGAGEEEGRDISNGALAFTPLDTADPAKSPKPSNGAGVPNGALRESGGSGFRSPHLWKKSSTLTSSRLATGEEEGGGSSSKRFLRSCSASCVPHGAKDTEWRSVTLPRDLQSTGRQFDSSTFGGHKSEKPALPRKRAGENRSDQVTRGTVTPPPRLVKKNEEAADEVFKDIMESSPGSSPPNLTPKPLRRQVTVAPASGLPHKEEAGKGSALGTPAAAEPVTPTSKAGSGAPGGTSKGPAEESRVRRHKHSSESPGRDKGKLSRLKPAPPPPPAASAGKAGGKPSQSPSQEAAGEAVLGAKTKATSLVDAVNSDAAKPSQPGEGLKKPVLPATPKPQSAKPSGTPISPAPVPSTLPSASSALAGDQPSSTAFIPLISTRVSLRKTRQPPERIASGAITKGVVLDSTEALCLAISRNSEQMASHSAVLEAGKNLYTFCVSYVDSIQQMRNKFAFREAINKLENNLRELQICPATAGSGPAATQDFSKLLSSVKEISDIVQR
Sequence of Protein cereblon/Tyrosine-protein kinase ABL1/Breakpoint cluster region protein (Homo sapiens) (P11274 whole entry, looked up): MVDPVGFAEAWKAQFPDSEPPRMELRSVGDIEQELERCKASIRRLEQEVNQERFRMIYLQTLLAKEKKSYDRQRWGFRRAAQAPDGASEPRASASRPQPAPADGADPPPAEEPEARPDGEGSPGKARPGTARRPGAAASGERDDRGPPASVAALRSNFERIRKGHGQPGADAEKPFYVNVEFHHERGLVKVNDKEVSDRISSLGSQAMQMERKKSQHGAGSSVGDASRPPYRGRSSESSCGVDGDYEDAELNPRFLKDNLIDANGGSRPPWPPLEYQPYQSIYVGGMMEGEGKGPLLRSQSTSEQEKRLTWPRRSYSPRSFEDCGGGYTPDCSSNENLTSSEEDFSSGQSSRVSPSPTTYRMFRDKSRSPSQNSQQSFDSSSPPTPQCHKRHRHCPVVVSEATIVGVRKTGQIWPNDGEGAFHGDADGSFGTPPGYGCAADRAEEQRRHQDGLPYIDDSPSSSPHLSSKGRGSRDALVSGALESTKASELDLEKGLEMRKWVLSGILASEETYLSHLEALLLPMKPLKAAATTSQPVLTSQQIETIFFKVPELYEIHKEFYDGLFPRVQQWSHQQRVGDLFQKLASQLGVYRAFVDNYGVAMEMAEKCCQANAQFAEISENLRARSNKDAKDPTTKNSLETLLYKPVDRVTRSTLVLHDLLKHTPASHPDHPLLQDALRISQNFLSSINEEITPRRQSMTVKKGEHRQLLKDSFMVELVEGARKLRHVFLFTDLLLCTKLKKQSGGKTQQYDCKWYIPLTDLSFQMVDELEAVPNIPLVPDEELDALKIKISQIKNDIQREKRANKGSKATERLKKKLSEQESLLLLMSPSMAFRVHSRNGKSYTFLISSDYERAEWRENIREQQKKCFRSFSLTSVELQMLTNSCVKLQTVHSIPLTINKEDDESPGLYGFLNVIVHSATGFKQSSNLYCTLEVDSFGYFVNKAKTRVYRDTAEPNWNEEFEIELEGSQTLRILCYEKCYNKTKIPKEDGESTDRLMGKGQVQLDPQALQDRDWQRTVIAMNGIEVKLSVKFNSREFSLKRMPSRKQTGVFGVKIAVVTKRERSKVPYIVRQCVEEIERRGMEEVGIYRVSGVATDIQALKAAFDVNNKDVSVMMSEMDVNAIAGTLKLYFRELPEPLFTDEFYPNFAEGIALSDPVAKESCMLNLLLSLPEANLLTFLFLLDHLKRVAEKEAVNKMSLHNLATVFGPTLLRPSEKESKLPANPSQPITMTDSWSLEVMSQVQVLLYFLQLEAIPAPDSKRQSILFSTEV
Sequence of Protein cereblon/Tyrosine-protein kinase ABL1/Breakpoint cluster region protein (Homo sapiens) (Q96SW2 whole entry, looked up): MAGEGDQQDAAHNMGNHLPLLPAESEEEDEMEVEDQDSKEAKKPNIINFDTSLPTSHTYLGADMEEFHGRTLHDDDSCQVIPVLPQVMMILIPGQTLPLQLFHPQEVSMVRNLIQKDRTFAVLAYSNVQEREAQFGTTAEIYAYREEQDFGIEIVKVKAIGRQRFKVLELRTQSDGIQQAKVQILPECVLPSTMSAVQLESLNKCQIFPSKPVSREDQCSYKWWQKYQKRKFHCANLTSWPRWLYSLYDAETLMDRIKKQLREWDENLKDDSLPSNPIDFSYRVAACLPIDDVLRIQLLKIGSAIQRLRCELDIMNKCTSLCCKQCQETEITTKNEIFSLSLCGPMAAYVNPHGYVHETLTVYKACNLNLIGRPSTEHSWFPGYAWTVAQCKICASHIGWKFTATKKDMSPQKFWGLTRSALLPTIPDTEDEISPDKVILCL

Activity	Compound
> 60%	Cc1nc(Nc2ncc(C(=O)Nc3c(C)cccc3Cl)s2)cc(N2CCN(CCCCCCOCCOCCOCCCCCC(=O)Nc3cccc4c3C(=O)N(C3CCC(=O)NC3=O)C4=O)CC2)n1 (stereo not given)
